From US9493775B2, “Inhibition of the glycine cleavage system for treatment of cancer” (Whitehead Institute for Biomedical Research, priority 2012, dated 2016)

How the values were obtained:
[1] = target: T1, glycine cleavage system (GCS) (Homo sapiens, UniProt P23378); conditions: cited from earlier work
T1 sequence (P23378 36-1020): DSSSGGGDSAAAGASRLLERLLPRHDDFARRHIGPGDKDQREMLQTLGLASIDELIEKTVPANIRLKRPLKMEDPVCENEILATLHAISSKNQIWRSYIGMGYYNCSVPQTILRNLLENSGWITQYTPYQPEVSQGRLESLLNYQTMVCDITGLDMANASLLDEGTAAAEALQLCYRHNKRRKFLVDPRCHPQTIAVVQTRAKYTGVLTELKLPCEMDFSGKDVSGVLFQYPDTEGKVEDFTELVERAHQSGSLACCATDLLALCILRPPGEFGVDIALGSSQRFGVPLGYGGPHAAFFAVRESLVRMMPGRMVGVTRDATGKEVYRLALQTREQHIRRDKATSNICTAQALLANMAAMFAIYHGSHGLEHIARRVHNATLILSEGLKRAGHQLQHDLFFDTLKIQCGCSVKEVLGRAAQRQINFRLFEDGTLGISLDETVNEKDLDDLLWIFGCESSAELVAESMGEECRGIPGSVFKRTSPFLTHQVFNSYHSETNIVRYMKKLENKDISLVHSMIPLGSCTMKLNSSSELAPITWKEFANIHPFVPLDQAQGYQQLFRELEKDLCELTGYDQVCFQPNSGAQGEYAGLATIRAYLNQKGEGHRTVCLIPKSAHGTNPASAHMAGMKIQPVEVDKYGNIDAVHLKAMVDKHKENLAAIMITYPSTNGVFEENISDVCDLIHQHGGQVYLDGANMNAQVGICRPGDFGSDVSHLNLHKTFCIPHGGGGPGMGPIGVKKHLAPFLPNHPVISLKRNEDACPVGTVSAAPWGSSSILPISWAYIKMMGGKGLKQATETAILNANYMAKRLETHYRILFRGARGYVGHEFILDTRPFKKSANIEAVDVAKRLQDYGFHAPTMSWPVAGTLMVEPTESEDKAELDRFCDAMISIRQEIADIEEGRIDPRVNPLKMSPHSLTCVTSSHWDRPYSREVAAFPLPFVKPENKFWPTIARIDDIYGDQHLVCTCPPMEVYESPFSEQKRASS

[2] = patients with NKH; cited from earlier work
P protein = conditions: cited from earlier work
[3] = system: glycine cleavage activity in the liver; conditions: administration to rats; cited from earlier work
T protein = T protein (Homo sapiens, UniProt P48728); conditions: cited from earlier work
[4] = system: GLDC-knockdown-sensitive cells; assay: Cysteamine treatment, cell viability by ATP assay; format: cell-based; conditions: 1 mM, 4 days
Method: FIGS. 3A-3C. GLDC shRNA sensitive lines, but not insensitive lines, are also sensitive to pharmacological inhibition of the GCS, and to shRNA knockdown of another GCS component (GCSH). (A) Various cell lines were treated with 1 mM cysteamine for 4 days. […] (C) Various cells lines were infected with GS1, GS2, GS3, or GS4 shRNAs for 6 days. Cell viability was measured and data from multiple experiments is shown ±S.D. The blue line indicates cell viability for each cell line when infected with control (GFP) shRNA, which was set as 100%. Thus, data for each cell line is shown as a % relative to viability when infected with shGFP. For (A) and (C), asterisk indicates a statistically significant decrease in cell viability following cysteamine treatment relative to untreated (p<0.05). Red font indicates GLDC shRNA-sensitive lines, and blue font indicates insensitive lines.
We assessed the effect of treatment with cysteamine, an inhibitor of the GCS (9) on a number of the tumor cell lines that had been examined in the experiments described in Example 3. Cells were treated with cysteamine (1 mM) for 4 days, and cell viability was then assessed using an ATP assay.

T protein, sequence (P48728 29-403): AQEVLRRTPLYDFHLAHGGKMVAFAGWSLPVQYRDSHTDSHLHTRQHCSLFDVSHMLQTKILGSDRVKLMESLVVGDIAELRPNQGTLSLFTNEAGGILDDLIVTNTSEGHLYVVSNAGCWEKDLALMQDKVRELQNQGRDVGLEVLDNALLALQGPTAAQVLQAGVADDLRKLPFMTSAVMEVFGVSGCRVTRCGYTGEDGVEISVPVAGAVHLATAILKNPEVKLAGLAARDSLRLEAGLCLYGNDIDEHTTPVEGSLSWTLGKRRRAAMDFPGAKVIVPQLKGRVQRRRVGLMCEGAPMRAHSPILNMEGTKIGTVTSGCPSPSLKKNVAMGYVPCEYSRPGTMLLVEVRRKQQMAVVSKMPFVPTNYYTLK

## N#CCN [aminoacetonitrile]
[1]
  inhibition of the GCS: reported to inhibit the GCS

## C#CCN [propargylamine, 3-Amino-1-propyne]
[1]
  inhibition of the GCS: reported to inhibit the GCS

## CCCC(CCC)C(=O)O [valproic acid, 2-propylpentanoic acid]
[2]
  seizure frequency: increase in seizure frequency
P protein; in vitro
  P protein activity in vitro: reduced
[3]
  glycine cleavage activity in the liver: inhibit glycine cleavage activity in the liver

## CN1c2c(nc(N)[nH]c2=O)NCC1CNc1ccc(C(=O)N[C@@H](CCC(=O)O)C(=O)O)cc1 (stereo partly drawn) [5-methyltetrahydrofolate]
T protein
  inhibition of T protein: inhibits T protein

## NOCC(=O)O [carboxymethoxylamine]
P protein
  inhibition of P protein: reported to inhibit P protein

## NCCS [cysteamine, 2-aminoethanethiol]
[1]
  inhibition of the GCS: known inhibitor of the GCS
[4]
  cell viability (ATP assay): impaired viability
